From PubChem BioAssay AID1845212 (Molecular Pharmacology Branch, DTP, NCI, 2023)
pIC50: −log10 of the molar value. Values joined by “and” are separate entries in the source; they are usually repeats but may differ in a detail not shown here. Equal values may be shown once.

Test system: NCI-H719 tumor spheroids, viability
Test: Anticancer human tumor NCI-H719 cell line growth inhibition;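 also: spheroids exposed to compounds for seven days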;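 as to viability, T/C: percent viability relative to DMSO vehicle control as 100%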
Settings: spheroids with HUVEC and MSC; for viability, T/C: stronger effect = lower value
How it was run: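 Complex spheroids of malignant cells with endothelial cells and mesenchymal stem cells; agents alone or combined, from near clinical Cmax (or 10 microM if unknown) down in half-log steps, 0.25% DMSO final.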

[1] = curve of first compound, second compound 0.003 µM
[2] = curve of first compound, second compound 0.00949 µM
[3] = curve of first compound, second compound 0.03 µM
[4] = curve of first compound, second compound 0.0949 µM
[5] = curve of first compound, second compound 0.3 µM
[6] = second compound 0.003 µM, first compound 0.0316 µM
[7] = second compound 0.003 µM, first compound 0.1 µM
[8] = second compound 0.003 µM, first compound 0.316 µM
[9] = second compound 0.003 µM, first compound 1 µM
[10] = second compound 0.003 µM, first compound 3.16 µM
[11] = second compound 0.003 µM, first compound 10 µM
[12] = second compound 0.00949 µM, first compound 0.0316 µM
[13] = second compound 0.00949 µM, first compound 0.1 µM
[14] = second compound 0.00949 µM, first compound 0.316 µM
[15] = second compound 0.00949 µM, first compound 1 µM
[16] = second compound 0.00949 µM, first compound 3.16 µM
[17] = second compound 0.00949 µM, first compound 10 µM
[18] = second compound 0.03 µM, first compound 0.0316 µM
[19] = second compound 0.03 µM, first compound 0.1 µM
[20] = second compound 0.03 µM, first compound 0.316 µM
[21] = second compound 0.03 µM, first compound 1 µM
[22] = second compound 0.03 µM, first compound 3.16 µM
[23] = second compound 0.03 µM, first compound 10 µM
[24] = second compound 0.0949 µM, first compound 0.0316 µM
[25] = second compound 0.0949 µM, first compound 0.1 µM
[26] = second compound 0.0949 µM, first compound 0.316 µM
[27] = second compound 0.0949 µM, first compound 1 µM
[28] = second compound 0.0949 µM, first compound 3.16 µM
[29] = second compound 0.0949 µM, first compound 10 µM
[30] = second compound 0.3 µM, first compound 0.0316 µM
[31] = second compound 0.3 µM, first compound 0.1 µM
[32] = second compound 0.3 µM, first compound 0.316 µM
[33] = second compound 0.3 µM, first compound 1 µM
[34] = second compound 0.3 µM, first compound 3.16 µM
[35] = second compound 0.3 µM, first compound 10 µM

## Cc1sc2c(c1C)C(c1ccc(Cl)cc1)=NC(CC(=O)Nc1ccc(O)cc1)c1nnc(C)n1-2 (configuration not stated)
Compound 0.00949 µM
  viability, T/C: 95.3% and 98.3% and 94.6%
Compound 0.03 µM
  viability, T/C: 95.8% and 95.1% and 102%
Compound 0.0949 µM
  viability, T/C: 47.7% and 63.8% and 60.6%
Compound 0.3 µM
  viability, T/C: 22.9% and 31% and 24.5%
Compound 0.949 µM
  viability, T/C: 4.99% and 4.88% and 4.46%
Compound 3 µM
  viability, T/C: 3.39% and 2.12% and 2.52%
Curve of compound
  pIC50: 6.98 and 6.81 and 6.85

## CC(C)n1c(=O)n(C)c2cnc3cc(F)c(-c4ccc(OCCCN5CCCCC5)nc4)cc3c21 + CC[C@@]1(O)C(=O)OCc2c1cc1n(c2=O)Cc2cc3c(CN(C)C)c(O)ccc3nc2-1
[1]
  pIC50: > 7.50
[2]
  pIC50: > 7.50
[3]
  pIC50: > 7.50
[4]
  pIC50: > 7.50
[5]
  pIC50: > 7.50
[6]
  viability, T/C: 33.1%
[7]
  viability, T/C: 48.3%
[8]
  viability, T/C: 61.5%
[9]
  viability, T/C: 63.7%
[10]
  viability, T/C: 67.9%
[11]
  viability, T/C: 50.5%
[12]
  viability, T/C: 8.54%
[13]
  viability, T/C: 8.8%
[14]
  viability, T/C: 7.39%
[15]
  viability, T/C: 6.31%
[16]
  viability, T/C: 16.9%
[17]
  viability, T/C: 12.7%
[18]
  viability, T/C: 7.27%
[19]
  viability, T/C: 6.04%
[20]
  viability, T/C: 7.74%
[21]
  viability, T/C: 6.96%
[22]
  viability, T/C: 8.35%
[23]
  viability, T/C: 6.27%
[24]
  viability, T/C: 7.12%
[25]
  viability, T/C: 6.79%
[26]
  viability, T/C: 7.51%
[27]
  viability, T/C: 7.66%
[28]
  viability, T/C: 7.78%
[29]
  viability, T/C: 6.17%
[30]
  viability, T/C: 8.38%
[31]
  viability, T/C: 7.86%
[32]
  viability, T/C: 8.29%
[33]
  viability, T/C: 8.95%
[34]
  viability, T/C: 8.79%
[35]
  viability, T/C: 5.92%

## COc1ccc([C@@H](O)c2cc(-c3ncnc4cc(N5CCOCC5)ccc34)c(F)cc2Cl)nn1 + CC[C@@]1(O)C(=O)OCc2c1cc1n(c2=O)Cc2cc3c(CN(C)C)c(O)ccc3nc2-1
[1]
  pIC50: > 7.50
[2]
  pIC50: > 7.50
[3]
  pIC50: > 7.50
[4]
  pIC50: > 7.50
[5]
  pIC50: > 7.50
[6]
  viability, T/C: 42.3%
[7]
  viability, T/C: 46.7%
[8]
  viability, T/C: 42.6%
[9]
  viability, T/C: 38.4%
[10]
  viability, T/C: 30.1%
[11]
  viability, T/C: 10.6%
[12]
  viability, T/C: 8.42%
[13]
  viability, T/C: 6.63%
[14]
  viability, T/C: 6.02%
[15]
  viability, T/C: 6.07%
[16]
  viability, T/C: 6.61%
[17]
  viability, T/C: 5.88%
[18]
  viability, T/C: 5.79%
[19]
  viability, T/C: 6.19%
[20]
  viability, T/C: 5.16%
[21]
  viability, T/C: 5.17%
[22]
  viability, T/C: 4.89%
[23]
  viability, T/C: 3.08%
[24]
  viability, T/C: 6.51%
[25]
  viability, T/C: 7.08%
[26]
  viability, T/C: 5.96%
[27]
  viability, T/C: 5.16%
[28]
  viability, T/C: 3.45%
[29]
  viability, T/C: 1.55%
[30]
  viability, T/C: 7.33%
[31]
  viability, T/C: 7.08%
[32]
  viability, T/C: 6.09%
[33]
  viability, T/C: 3.58%
[34]
  viability, T/C: 1.58%
[35]
  viability, T/C: 1.36%

## Cn1ncnc1[C@H]1c2n[nH]c(=O)c3cc(F)cc(c23)N[C@@H]1c1ccc(F)cc1
Compound 0.00949 µM
  viability, T/C: 14.8% and 59.6% and 24.1%
Compound 0.03 µM
  viability, T/C: 8.09% and 8.06% and 12.8%
Compound 0.0949 µM
  viability, T/C: 6.33% and 7.52% and 10%
Compound 0.3 µM
  viability, T/C: 6.84% and 6.92% and 9.12%
Compound 0.949 µM
  viability, T/C: 5.82% and 8.51% and 7.74%
Compound 3 µM
  viability, T/C: 6.37% and 7.94% and 7.04%
Curve of compound
  pIC50: > 8.02 and 7.93

## COc1cc(C)[nH]c(=O)c1CN1CCc2c(Cl)cc(C(OC)C3COC3)c(Cl)c2C1=O (configuration not stated) + COc1cc2c(cc1O)CCNC21CSC2c3c(OC(C)=O)c(C)c4c(c3C(COC1=O)N1C(O)C3Cc5cc(C)c(OC)c(O)c5C(C21)N3C)OCO4
Curve of first compound, second compound 30 pM
  pIC50: < 5.00
Curve of first compound, second compound 94.9 pM
  pIC50: > 7.50
Curve of first compound, second compound 0.0003 µM
  pIC50: > 7.50
Curve of first compound, second compound 0.000949 µM
  pIC50: > 7.50
[1]
  pIC50: > 7.50
Second compound 30 pM, first compound 0.0316 µM
  viability, T/C: 91.6%
Second compound 30 pM, first compound 0.1 µM
  viability, T/C: 85%
Second compound 30 pM, first compound 0.316 µM
  viability, T/C: 88.3%
Second compound 30 pM, first compound 1 µM
  viability, T/C: 95.7%
Second compound 30 pM, first compound 3.16 µM
  viability, T/C: 90.9%
Second compound 30 pM, first compound 10 µM
  viability, T/C: 82.9%
Second compound 94.9 pM, first compound 0.0316 µM
  viability, T/C: 39.9%
Second compound 94.9 pM, first compound 0.1 µM
  viability, T/C: 42.6%
Second compound 94.9 pM, first compound 0.316 µM
  viability, T/C: 43.9%
Second compound 94.9 pM, first compound 1 µM
  viability, T/C: 31.1%
Second compound 94.9 pM, first compound 3.16 µM
  viability, T/C: 32.4%
Second compound 94.9 pM, first compound 10 µM
  viability, T/C: 50.6%
Second compound 0.0003 µM, first compound 0.0316 µM
  viability, T/C: 13.2%
Second compound 0.0003 µM, first compound 0.1 µM
  viability, T/C: 6.14%
Second compound 0.0003 µM, first compound 0.316 µM
  viability, T/C: 8.15%
Second compound 0.0003 µM, first compound 1 µM
  viability, T/C: 5.96%
Second compound 0.0003 µM, first compound 3.16 µM
  viability, T/C: 6.6%
Second compound 0.0003 µM, first compound 10 µM
  viability, T/C: 7.13%
Second compound 0.000949 µM, first compound 0.0316 µM
  viability, T/C: 6.97%
Second compound 0.000949 µM, first compound 0.1 µM
  viability, T/C: 6.88%
Second compound 0.000949 µM, first compound 0.316 µM
  viability, T/C: 8.11%
Second compound 0.000949 µM, first compound 1 µM
  viability, T/C: 6.65%
Second compound 0.000949 µM, first compound 3.16 µM
  viability, T/C: 6.56%
Second compound 0.000949 µM, first compound 10 µM
  viability, T/C: 6.23%
[6]
  viability, T/C: 0.23%
[7]
  viability, T/C: 0.35%
[8]
  viability, T/C: 0.34%
[9]
  viability, T/C: 0.86%
[10]
  viability, T/C: 0.34%
[11]
  viability, T/C: 0.93%

## CNCc1ccc(-c2cc(-c3nc(-c4ccc(S(=O)(=O)C(C)C)cc4)cnc3N)on2)cc1
Compound 0.00949 µM
  viability, T/C: 96.3% and 108% and 109%
Compound 0.03 µM
  viability, T/C: 103% (2×) and 107%
Compound 0.0949 µM
  viability, T/C: 57.4% and 81.5% and 93.3%
Compound 0.3 µM
  viability, T/C: 41.9% and 37.8% and 43.2%
Compound 0.949 µM
  viability, T/C: 9.72% and 6.55% and 13.6%
Curve of compound
  pIC50: 6.80 and 6.67 and 6.58

## CC(C)n1c(=O)n(C)c2cnc3cc(F)c(-c4ccc(OCCCN5CCCCC5)nc4)cc3c21
Compound 0.0316 µM
  viability, T/C: 82.1% and 106% and 81.7%
Compound 0.1 µM
  viability, T/C: 93.8% and 98.1% and 94.4%
Compound 0.316 µM
  viability, T/C: 116% and 107% and 117%
Compound 1 µM
  viability, T/C: 81.4% and 94.8% and 103%
Compound 3.16 µM
  viability, T/C: 85.7% and 142% and 110%
Compound 10 µM
  viability, T/C: 108% and 104% and 123%
Curve of compound
  pIC50: < 5.00
